PMC12256323, “Crustacean methyl farnesoate–binding protein is an insect juvenile hormone–binding protein homolog that inhibits molting” (The Journal of Biological Chemistry, 2025)

Legend:
[1] = biological target: T1, r-LvMFBP (XP_027209752.1; methyl farnesoate-binding protein, MFBP); assay: isothermal titration calorimetry; design: species or system Penaeus vannamei; details: 20 uM protein, 200 uM ligand, 20 mM Tris-HCl pH 7.5, 30 C
T1 construct: recombinant, E. coli BL21-T1R, HisTALON (His-tag) purified; precursor 215 aa with 16 aa signal peptide, mature 199 aa

[2] = biological target: T1, r-LvMFBP (XP_027209752.1; methyl farnesoate-binding protein, MFBP); assay: isothermal titration calorimetry (also surface plasmon resonance); design: species or system Penaeus vannamei; details: ITC: 20 uM protein, 200 uM ligand, 20 mM Tris-HCl pH 7.5, 30 C; SPR: immobilized protein, PBST pH 7.4

| Compound | Kd [1] [µM] | Kd [2] [µM] |
| --- | --- | --- |
| CC(C)=CCC/C(C)=C/CC/C(C)=C/C(=O)O [FA, farnesoic acid] | 630 | – |
| COC(=O)/C=C(\C)CC/C=C(\C)CCC=C(C)C [MF, methyl farnesoate] | – | 0.666 |
| COC(C)(C)CCCC(C)C/C=C/C(C)=C/C(=O)OC(C)C (stereo not drawn) [Met, methoprene] | 34.7 | – |
